The target in assay [1] is human recombinant A2A adenosine receptor (Homo sapiens (Human), UniProt P29274). The assay is described as follows: Adenosine A2A receptor binding, displacement of [3H]NECA. The conditions noted are these: displacement of specific [3H]NECA binding, CHO cells; geometric mean. On the procedure:
(§1) Membranes for radioligand binding experiments were prepared from fresh or frozen cells as described in Klotz et al., Naunyn-Schmiedeberg's Arch. […] The cell suspension was then homogenized in ice-cold hypotonic buffer (5 mM Tris/HCl, 2 mM EDTA, pH 7.4) and the homogenate was spun for 10 minutes (4° C.) at 1,000 g.
(§2) Nonspecific binding was determined in the presence of 100 μM R-PIA and 1 mM theophylline, respectively. For details see Klotz et al., Naunyn-Schmiedeberg's Arch.

Assay [2] has as its target human recombinant A3 adenosine receptor (Homo sapiens (Human), UniProt P0DMS8). The assay is described as follows: Adenosine A3 receptor binding, displacement of [3H]NECA. The conditions noted are these: displacement of specific [3H]NECA binding, HEK cells; geometric mean. As for the experimental part: as §1, §2
In general terms: Displacement assays read how much labelled ligand stays bound in the presence of the test substance.

Assay [3] has as its target human recombinant A1 adenosine receptor (Homo sapiens (Human), UniProt P30542). In words: Adenosine A1 receptor binding, displacement of [3H]CCPA. The settings on record: for Ki: displacement of specific [3H]CCPA binding, CHO cells, geometric mean; for selectivity for the adenosine A1 receptor: versus human A2A and A3 receptors, Table 1. On the procedure: as §1
The affinities of selected Purine Derivatives for the adenosine A1 receptor were determined by measuring the displacement of specific [^3H]
as §2

Assay [4] has as its system male BALB/c mice. In words: Lipopolysaccharide-induced cytokine production (septic shock model). Type of assay: in vivo, mouse. The conditions noted are these: 0.03 mg/kg orally 30 min before LPS 1 mg/kg i.p.; measured 90 min after LPS. As for the experimental part: (§3) Male BALB/c mice (6-8 weeks of age) were used in studies investigating lipopolysaccharide-induced cytokine production and survival. […] Serum was diluted 1:5 prior to being assayed for cytokines using species-specific ELISA kits (R & D Systems) for the chemokine MIP-1α and the cytokine TNF-α levels, which were expressed as pg/mL. […] The survival of the mice was followed over 72 h and expressed as a percentage of surviving mice at each time point. […] N=12-14 per group.

The next assay deals with male Wistar rats. In words: Mechanically induced pain threshold in carrageenan rat model. The format is in vivo. The conditions noted are these: intrathecal, 5.0 mg/kg (FIG. 8); 15-120 min. On the procedure:
Male Wistar rats (each weighing between 200-250 g, kept under pathogen-free conditions at 24-25° C. and provided with standard rat chow and water ad libitum) were anaesthetized via intraperitoneal administration of pentobarbital (50 mg/kg) and placed in a stereotaxic frame. The atlanto-occipital membrane was exposed and a PE-10 catheter (7.5 cm) was inserted through an incision into the subarachnoidal space. The external end of the catheter was then fixed to the skull, the wound was closed, and the rats were allowed to recover for 7 days post-surgery. Animals without neurological deficits were placed in a plexiglass observation chamber on a metal mesh surface and mechanical thresholds of the plantar surface of the paw were determined using a Dynamic Plantar Aesthesiometer (Ugo Basile, Italy) as follows: Following acclimation, the touch stimulator unit was placed under the animal's paw such that the filament was positioned under the target area of the paw. The filament was then lifted such that it contacted the pad of the animal's paw and continually exerted an increasing upward force on the paw until the animal withdrew the paw. The paw withdrawal threshold was measured 5 times in this manner in turns and the mean of the 5 values was calculated. […] Three hours after the carrageenan administration, the threshold values were measured again.

Assay [5] has as its system male mice. The assay is described as follows: Acute pain model, tail flick assay. The format is in vivo, mouse. The settings on record: 3 mg/kg i.p. On the procedure: The analgesic effects in mice was measured using an IITC model 33 tail-flick analgesia meter (IITC Inc., Woodland Hills, Calif.) at 0 minutes (baseline control), 5 minutes, 15 minutes, 30 minutes and 60 minutes (in some cases also 90 and 120 minutes) post-treatment. compound or vehicle treatment. Average recoding value of two readings was used for each time point. A baseline for every mouse between 2-4 seconds of latency and a 10-second cut-off time was set for the maximum possible effect of analgesia (% MPE). % MPE was calculated using the following formula: % MPE=[(post-drug value−baseline)/(cut-off time−baseline)]×100.
(In hot-plate and tail-flick tests a longer latency is read as antinociception.)

The test system of another assay is male CD rats. In words: Sciatic nerve ligation allodynia, Von Frey Hair test. Type of assay: in vivo, rat. As for the experimental part:
The rats were then anesthetized via intraperitoneal administration of sodium pentobarbital (50 mg/kg). A skin incision was made at the upper ⅓ and ⅔ left thigh area of each rat and the left sciatic nerve was exposed and freed from the surrounding connective tissue. An 8-0 nylon suture was then used to tightly ligate the left sciatic nerve of each rat so that the dorsal ⅓ to ½ of the nerve thickness was trapped in the ligature. The incision was closed using 4-0 sterile suture.

In assay [6] the test system is isolated perfused rat hearts. In words: Ischemia-induced arrhythmias in isolated perfused rat hearts (LAD ligation). On the procedure: Male Sprague-Dawley rats (having a body weight of 250 to 300 g) were heparinized using sodium heparin (1,000 U/kg i.p.), followed 10 minutes later by introduction of anesthesia via intraperitoneal administration of sodium pentobarbital (40 mg/kg). Once the animal was anesthetized, the thorax was opened, and the heart was rapidly removed and perfused through the ascending aorta using Krebs-Ringer buffer consisting of NaCl (118 mmol/liter), KCl (4.75 mmol/liter), KH2PO4 (1.18 mmol/liter), MgSO4 (1.18 mmol/liter), CaCl2 (2.5 mmol/liter), NaHCO3 (25 mmol/liter), and glucose (11 mmol/liter). A mixture of 95% O2 and 5% CO2 at 37° C. was bubbled through the perfusate. The heart was initially perfused at a constant pressure of 70 mm Hg. About 10 min after the constant pressure perfusion, perfusion was switched to constant flow perfusion achieved using a microtube pump. The perfusion pressure was maintained at the same level of constant pressure perfusion by adjusting flow rate. Once the flow rate was determined, it was maintained throughout the experiment. The hearts were stimulated by rectangular pulses at a rate of 5 Hz and 2-millisecond duration and twice the diastolic threshold, delivered from a stimulus isolation unit (ADInstruments Ltd, Australia). Rat hearts were perfused at constant pressure of 70 mmHg without pacing as described above. Bipolar epicardial electrocardiogram (ECG) was recorded by placing two electrodes on the surface of right appendage and apex. A stainless steel cannula was used as indifferent electrode. The ECG and heart rate were continuously monitored and data were recorded using a PowerLab data acquisition system (ADInstruments Ltd, Australia) in conjunction with a Macintosh computer, and analyzed using Chart.3 computer package. After a 20-minute equilibration period, regional ischemia was induced by ligation of the left anterior descending (LAD) coronary artery, and the ligature was released 30 minutes after occlusion. […] The incidences of ventricular tachycardia (VT) were almost same in control non-treated (12/12) and in treated hearts (20/22). […]

Assay [7] deals with male mice. The assay is described as follows: Formalin pain model. Type of assay: in vivo, mouse. The conditions noted are these: 1.0 mg/kg i.p. On the procedure: Male mice (each having a body weight of 20-30 g) were subcutaneously administered 20 μl of a 1% formalin solution in formaldehyde (prepared by diluting a commercial 4% [w/v] stock formalin solution) into the dorsal region of their left hind paw. […] Both groups of animals were monitored for a reaction for 30 minutes post-treatment to determine how much time each animal spends licking the treated paw. The licking time in control group (vehicle pretreated animals) was then compared to the licking time in the treatment group in order to calculate the analgesic effect. The 30 minute reaction period was divided into two phases: an early phase which lasts from 0-5 minutes post-treatment, and a late phase which lasts from 10-30 minutes post-treatment.

Assay [8] relates to male BALB/c mice. The assay is described as follows: Lipopolysaccharide-induced mortality, survival study. The format is in vivo, mouse. The conditions noted are these: 0.03 mg/kg orally 30 min before LPS 55 mg/kg i.p.; followed over 72 h. On the procedure:
as §3

Another assay deals with BALB/C mice. In words: Allodynia in streptozotocin model of diabetic neuropathy. The format is in vivo, mouse. The conditions noted are these: 1 mg/kg; 15, 30, 60 min after administration. As for the experimental part: BALB/C mice (6-8 weeks of age) were intraperitoneally administered streptozotocin (40 mg/kg, once per day for 5 consecutive days) to induce diabetes (blood glucose levels were greater than […]).

The test system of assay [9] is isolated perfused rat hearts. The assay is described as follows: Function recovery after global ischemia/reperfusion in isolated perfused rat hearts. The conditions noted are these: 1 nM, infused 10 min before 30 min no-flow ischemia, 40 min reperfusion. As for the experimental part: Male Sprague-Dawley rats (having a body weight of 250 to 300 g) were heparinized using sodium heparin (1,000 U/kg i.p.), followed 10 minutes later by introduction of anesthesia via intraperitoneal administration of sodium pentobarbital (40 mg/kg). Once the animal was anesthetized, the thorax was opened, and the heart was rapidly removed and perfused through the ascending aorta using Krebs-Ringer buffer consisting of NaCl (118 mmol/liter), KCl (4.75 mmol/liter), KH2PO4 (1.18 mmol/liter), MgSO4 (1.18 mmol/liter), CaCl2 (2.5 mmol/liter), NaHCO3 (25 mmol/liter), and glucose (11 mmol/liter). A mixture of 95% O2 and 5% CO2 at 37° C. was bubbled through the perfusate. The heart was initially perfused at a constant pressure of 70 mm Hg. About 10 min after the constant pressure perfusion, perfusion was switched to constant flow perfusion achieved using a microtube pump. The perfusion pressure was maintained at the same level of constant pressure perfusion by adjusting flow rate. Once the flow rate was determined, it was maintained throughout the experiment. The hearts were stimulated by rectangular pulses at a rate of 5 Hz and 2-millisecond duration and twice the diastolic threshold, delivered from a stimulus isolation unit (ADInstruments Ltd, Australia). Rat hearts were initially perfused at a constant pressure of 70 mm Hg using the procedure described above in section 6.12.1. […]

Another assay has as its system adult male Wistar rats. In words: Effect on heart rate in anesthetized rats. Type of assay: in vivo, rat. From the text: Adult male Wistar rats (each weighing from about 350 g to about 400 g) were anesthetized as in Example 19, then prepared for monitoring of blood pressure and heart rate.

Each structure is given as a SMILES string.

Chain of human recombinant A2A adenosine receptor (P29274 whole entry): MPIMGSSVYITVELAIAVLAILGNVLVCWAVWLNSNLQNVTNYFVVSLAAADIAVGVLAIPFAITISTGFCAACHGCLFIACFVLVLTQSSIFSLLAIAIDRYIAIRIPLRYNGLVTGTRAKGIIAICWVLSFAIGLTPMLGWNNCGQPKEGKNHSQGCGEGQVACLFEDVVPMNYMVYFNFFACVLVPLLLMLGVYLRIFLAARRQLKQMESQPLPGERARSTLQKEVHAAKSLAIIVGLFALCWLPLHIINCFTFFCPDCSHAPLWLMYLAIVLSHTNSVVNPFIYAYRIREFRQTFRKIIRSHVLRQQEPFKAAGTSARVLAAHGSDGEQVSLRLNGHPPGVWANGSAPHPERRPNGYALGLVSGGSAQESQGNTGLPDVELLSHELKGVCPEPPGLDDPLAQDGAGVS
Chain of human recombinant A3 adenosine receptor (P0DMS8 whole entry): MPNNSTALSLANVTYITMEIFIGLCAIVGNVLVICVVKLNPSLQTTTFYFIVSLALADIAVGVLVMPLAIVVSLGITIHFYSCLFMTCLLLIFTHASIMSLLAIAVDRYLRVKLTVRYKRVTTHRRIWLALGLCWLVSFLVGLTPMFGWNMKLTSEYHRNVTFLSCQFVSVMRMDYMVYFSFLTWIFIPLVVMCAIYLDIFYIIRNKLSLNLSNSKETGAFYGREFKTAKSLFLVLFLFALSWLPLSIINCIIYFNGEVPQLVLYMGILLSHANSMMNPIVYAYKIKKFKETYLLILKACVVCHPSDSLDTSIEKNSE
Chain of human recombinant A1 adenosine receptor (P30542 whole entry): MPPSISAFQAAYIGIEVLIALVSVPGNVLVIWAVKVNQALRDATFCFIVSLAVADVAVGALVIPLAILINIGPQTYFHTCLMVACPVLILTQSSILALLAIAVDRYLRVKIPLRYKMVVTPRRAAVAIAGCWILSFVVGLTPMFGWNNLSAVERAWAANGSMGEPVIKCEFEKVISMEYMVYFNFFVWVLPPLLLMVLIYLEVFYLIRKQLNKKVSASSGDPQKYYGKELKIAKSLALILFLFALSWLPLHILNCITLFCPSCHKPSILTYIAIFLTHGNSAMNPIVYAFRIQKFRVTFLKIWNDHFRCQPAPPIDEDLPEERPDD

For the compound `Nc1nc(Cl)nc2c1ncn2[C@@H]1O[C@H](CO[N+](=O)[O-])[C@@H](O)[C@H]1O` [Compound 19], the Ki (commonly a dissociation constant, usually derived from enzyme kinetics or from competition with a known ligand) in assay [1] is 10 µM; in assay [2] it was 0.9 µM; in assay [3] it was 0.007 µM. Also, in assay [3], the “selectivity for the adenosine A1 receptor” value (“selectivity” below) is recorded as “selective for the adenosine A1 receptor”.

`O=[N+]([O-])OC[C@H]1O[C@@H](n2cnc3c(NC4CCCC4)ncnc32)[C@H](O)[C@@H]1O` [Compound 17]: the figures for the Ki in [1] and in assay [2] were 4.69 µM and 0.704 µM, respectively. Moreover, the “lipopolysaccharide-induced plasma MIP-1α production” value with male BALB/c mice [4] is “reduces”. Moreover, in the assay on male BALB/c mice [4], the “lipopolysaccharide-induced plasma TNF-α production” value is “reduces”. Besides, the “paw withdrawal (pain) threshold” value in the assay on male Wistar rats was “effective for raising the pain threshold”. The “analgesic effect, tail flick (% MPE)” value in the assay on male mice [5] is “exerts a analgesic effect”. In addition, the “analgesic effect on allodynia, alone” value in the assay on male CD rats (0.1 mg/kg alone) is reported as “exerts an analgesic effect”. Besides, the “analgesic effect on allodynia, in combination with buprenorphine” value in the assay on male CD rats (0.1 mg/kg co-administered with buprenorphine 0.3 mg/kg) is on record as “exerts an analgesic effect”. Besides, in assay [6] (30 and 100 pM), the “total duration of both VT and VF” value was “significantly shortened”. Besides, the “incidence of ventricular fibrillation (VF)” value in [6] (treated hearts (2/22), 10, 30 and 100 pM, non-treated 58% (7/12)) was 9%. In [6] (treated hearts, 10, 30 and 100 pM, non-treated 12/12), the “incidence of ventricular tachycardia (VT)” value is reported as 20/22. For the same compound, the “analgesic effect, paw licking time, late phase (10-30 min)” value in the assay with male mice [7] is recorded as “exhibits an analgesic effect during the late phase”. Besides, in the assay on male mice [7] (early phase 0-5 min), the “response in first phase of formalin test” value is listed as “no response”. In addition, the lipopolysaccharide-induced mortality entry in the assay with male BALB/c mice [8] is recorded as “reduces”. Moreover, the “analgesic effect on allodynia” value in the assay on BALB/C mice is “marked and lasting analgesic effect”. In assay [9], the “+dp/dtmax (maximal rate of development of left ventricular pressure)” value was “significantly improved”. The heart rate came out at 370 beats per minute in the assay on adult male Wistar rats (10 ng/kg/minute i.v. for 20 minutes, lowered from 440 beats per minute) and 150 beats per minute with adult male Wistar rats (1000 ng/kg/minute i.v. for 20 minutes, reduced from 440 beats per minute).

For `Nc1ncnc2c1ncn2[C@@H]1O[C@H](CO[N+](=O)[O-])[C@@H](O)[C@H]1O` [Compound 18], the Ki in assay [1] is 0.951 µM; in assay [2], 0.216 µM; in assay [3], 0.00579 µM. In assay [3], the “selectivity” value was “selective for the adenosine A1 receptor”.

`O=[N+]([O-])OC[C@H]1O[C@@H](n2cnc3c(NC4CCOC4)ncnc32)[C@H](O)[C@@H]1O` (stereo partly drawn) [Compound 25]: the Ki in [1] was over 100 µM; in assay [2], 2.02 µM. The “selectivity” value in assay [3] is recorded as “selective for the adenosine A1 receptor”.

As for `O=[N+]([O-])OC[C@H]1O[C@@H](n2cnc3c(NC4CCCC4)nc(Cl)nc32)[C@H](O)[C@@H]1O` [Compound 16], the Ki in [1] came out at 4.19 µM.

The values above are taken from patent US8609833B2, “Purine derivatives as adenosine A1 receptor agonists and methods of use thereof” (Inotek Pharmaceuticals Corporation, priority 2004, dated 2013).
